What was measured:
ovine COX-1 = target: T1, ovine COX-1 (Ovis aries, UniProt P05979); assay: Cyclooxygenase enzyme assay (TLC method), COX-1; type: biochemical; conditions: ovine COX-1, preincubation 90-120 min, [1-14C]arachidonic acid 50 μM
T1 construct: purchased Oxford Biomedical Research Inc
T1 sequence (P05979 25-600): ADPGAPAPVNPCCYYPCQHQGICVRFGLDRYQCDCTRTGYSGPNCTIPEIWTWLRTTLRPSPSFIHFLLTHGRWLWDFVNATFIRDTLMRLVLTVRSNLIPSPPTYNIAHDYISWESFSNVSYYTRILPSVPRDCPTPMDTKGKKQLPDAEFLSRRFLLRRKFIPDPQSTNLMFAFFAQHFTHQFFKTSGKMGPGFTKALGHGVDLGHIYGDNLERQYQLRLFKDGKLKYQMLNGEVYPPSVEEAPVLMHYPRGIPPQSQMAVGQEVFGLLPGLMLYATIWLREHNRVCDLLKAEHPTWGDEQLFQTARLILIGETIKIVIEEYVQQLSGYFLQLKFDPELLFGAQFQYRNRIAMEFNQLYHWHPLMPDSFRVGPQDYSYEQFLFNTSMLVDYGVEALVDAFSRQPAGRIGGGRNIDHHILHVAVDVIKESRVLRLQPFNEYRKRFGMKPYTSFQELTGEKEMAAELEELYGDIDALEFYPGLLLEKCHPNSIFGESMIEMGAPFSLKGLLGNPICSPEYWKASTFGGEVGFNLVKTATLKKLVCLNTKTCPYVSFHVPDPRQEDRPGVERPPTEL
Experimental: (§1) Cyclooxygenase activity of ovine COX-1 (Oxford Biomedical Research Inc.) and human recombinant COX-2 Oxford Biomedical Research Inc.) was assayed by a thin layer chromatography (TLC) method as follows. All inhibitors were dissolved in dimethyl sulfoxide to a stock solution of 5 mM. Human recombinant COX-2 (3 units) or ovine COX-1 (15 units) was incubated with inhibitors at several concentrations in a solution containing 100 mM Tris-HCl, pH7.8, 500 uM phenol and hematin for 90 to 120 minutes at room temperature (24° C.). In controls, equal volumes of DMSO without drug were added to the incubation mixture. After incubation for 90-120 minutes, [1-^14C]arachidonic acid (50 μM, 51 mCi/mmol) (DuPont NEN) was added and incubated at 37° C. for 2 minutes. The reaction was terminated by extraction with 1 ml of ethyl acetate. The ethyl acetate layer was transferred into a fresh tube and evaporated to dryness in a Speedvac vacuum dryer. The contents of the tubes were reconstituted in […] of ethyl acetate and spotted on a TLC plate (J. T. Baker, Phillipsburg, N.J.) and developed in a mobile phase containing chloroform/methanol (95:5) at4° C. Radiolabeled prostanoid compounds (the products of COX enzymatic reaction with radiolabeled arachidonic acid substrate) were quantitated with a radioactivity scanner (Fuji, Phosphorimager). The percentage of total products observed at different inhibitor concentrations was divided by the percentage of the products observed for protein samples pre incubated for the same time with DMSO.

human recombinant COX-2 = target: T2, human recombinant COX-2 (Homo sapiens, UniProt P35354); assay: Cyclooxygenase enzyme assay (TLC method), COX-2; type: biochemical; conditions: human recombinant COX-2, preincubation 90-120 min, [1-14C]arachidonic acid 50 μM
T2 construct: purchased Oxford Biomedical Research Inc
T2 sequence (P35354 18-604): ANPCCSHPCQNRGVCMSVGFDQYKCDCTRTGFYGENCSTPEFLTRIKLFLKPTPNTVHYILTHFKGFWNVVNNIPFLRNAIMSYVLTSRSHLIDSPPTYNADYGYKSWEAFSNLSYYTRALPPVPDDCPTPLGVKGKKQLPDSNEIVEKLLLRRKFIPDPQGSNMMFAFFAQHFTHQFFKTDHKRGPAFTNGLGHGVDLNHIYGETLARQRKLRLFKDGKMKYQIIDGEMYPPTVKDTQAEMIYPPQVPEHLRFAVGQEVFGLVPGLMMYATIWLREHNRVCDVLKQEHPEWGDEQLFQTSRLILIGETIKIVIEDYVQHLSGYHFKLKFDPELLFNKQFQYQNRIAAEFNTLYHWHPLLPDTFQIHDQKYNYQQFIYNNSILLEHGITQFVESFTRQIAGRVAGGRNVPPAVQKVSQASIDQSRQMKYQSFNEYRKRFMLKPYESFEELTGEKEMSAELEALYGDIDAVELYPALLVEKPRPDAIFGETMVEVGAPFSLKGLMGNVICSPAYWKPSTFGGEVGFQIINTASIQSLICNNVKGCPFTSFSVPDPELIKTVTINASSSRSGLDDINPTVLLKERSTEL
Experimental: The compounds of formula I are potent inhibitors of COX-2. […] The resulting radiolabeled prostanoid compounds, i.e., the products of COX-2 reaction with arachidonic acid, were quantified.
as §1

DLD-1 cells = assay: Soft agar assay, DLD-1 cells; type: cell-based, human; conditions: DLD-1 in soft agar, highest concentration tested, versus untreated control cells (FIG. 1)
Experimental: (§2) Z-styryl 2-acetoxyphenylsulfide (Example 1) was compared to the COX-2 inhibitor celecoxib in inhibiting the growth of HT29 cells in soft agar. HT29 cells are human colorectal carcinoma cells that overexpress COX-2. HT29 cells grow in soft agar and form tumors in nude mice. The soft agar assay was performed as follows. A layer of bottom agar ([…]) was placed onto 60 mm^2 tissue culture dishes. The tumor cells were trypsinized from normal growth flasks while in exponential growth. The cells were counted by using a hemacytometer and 1.0×10^5 cells were placed into the top agar mixture containing growth medium, […] and various concentrations of drugs. The concentration range was normally between 10 μM to 75 μM. The cells were not refed during the assay system; therefore, the cells were treated with one dose of the agents. The plates were stained 20 days later with a 0.05% (w/v) nitroblue tetrazolium solution (which stains only viable cells) for 48 hours. […] The same concentration of Z-styryl 2-acetoxyphenylsulfide had little affect on the growth of monolayer cells.
The same assay was carried out with DLD-1 cells. Like HT29, DLD-1 cells are human colorectal carcinoma cells that overexpress COX-2. They grow in soft agar and form tumors in nude mice. The results are shown in FIG. 1, the y-axis being the percent of cell colonies remaining in comparison to untreated control cells.

HT29 cells [1] = assay: Growth of monolayer cells; type: cell-based, human; conditions: same concentration (10 μM)
Experimental: as §2

HT29 cells [2] = assay: Soft agar assay, HT29 cells; type: cell-based, human; conditions: HT29 in soft agar
Experimental: as §2

Compound	IC50 (ovine COX-1) [nM]	IC50 (human recombinant COX-2) [nM]	inhibition of cell colony growth (DLD-1 cells) [%]	effect on the growth of monolayer cells (HT29 cells [1])	inhibition of anchorage independent growth (HT29 cells [2]; lowest concentration tested (10 μM), one dose, stained 20 days later)	concentrations at which plates were devoid of all staining cells (HT29 cells [2]; nitroblue tetrazolium stain (viable cells))
CC(=O)Oc1ccccc1S/C=C\c1ccc(Cl)cc1 [Example 4, Z-4-Chlorostyryl 2-acetoxyphenylsulfide]	4000	200	–	–	–	–
CC(=O)Oc1ccccc1S/C=C\c1ccccc1Cl [Example 3, Z-2-Chlorostyryl 2-acetoxyphenylsulfide]	4000	250	–	–	–	–
CC(=O)Oc1ccccc1S/C=C\c1ccc(F)cc1 [Example 2, Z-4-Fluorostyryl 2-acetoxyphenylsulfide]	4500	350	–	–	–	–
CC(=O)Oc1ccccc1S/C=C\c1ccccc1 [Example 1, Z-styryl 2-acetoxyphenylsulfide]	5000	150	100	little affect	completely inhibited	above 20 μM
CC(=O)Oc1cccc(/C=C\Sc2ccccc2OC(C)=O)c1 [Example 10, Z-3-Acetoxystyryl 2-acetoxyphenylsulfide]	2000	700	–	–	–	–

Source: patent US6656968B1, “(Z)-styryl acetoxyphenyl sulfides as cyclooxygenase inhibitors” (Temple University - Of the Commonwealth System of Higher …, priority 1999, dated 2003)
